From article PMC1839085, “Crystal structures of an Extracytoplasmic Solute Receptor from a TRAP transporter in its open and closed forms reveal a helix-swapped dimer requiring a cation for α-keto acid binding” (BMC Structural Biology, 2007)

Target: T1, TakP (Cereibacter sphaeroides, UniProt Q3J1R2)
T1 construct: His6 (C); made in house; host or cells: E. coli BL21
Experiment: Tryptophan fluorescence quenching titration of ligand binding to TakP
Parameters: species or system Rhodobacter sphaeroides
Settings: for Binding to purified proteins from the SmoM family (qualitative): purified proteins from the SmoM (TakP) family, stated as [15] and this study, method not specified
Description: We overexpressed and purified TakP from Rhodobacter sphaeroides and confirmed its ability to bind a range of α-keto acids. A general feature of ESRs is that substrate binding is accompanied by a diminished fluorescence from some tryptophan residue(s) as a result of the conformational changes induced by the binding. […] This was accompanied by a shift of the emission peak: the difference spectrum between the unliganded and liganded (quenched) protein has its maximum around 345 nm, whereas the bulk fluorescence from the unliganded form peaks at 335 nm. […] There are 10 Trp residues in the TakP sequence. From the structural information describe below, it turned out that one of these Trp residues (Trp 215) is directly interacting with the ligand when present, so that its fluorescence may be strongly quenched as a result. Two others undergo a significant displacement during the open/closed transition, which may also affect their fluorescence properties. Clearly, the observed amplitude of the fluorescence quenching caused by ligand binding (~30%) implies that these sensitive residues have for some reason a larger relative contribution to the fluorescence emission than the other tryptophans of the protein.
Because of the high binding affinity of these, we had to use a sufficiently low protein concentration to obtain an accurate determination of the dissociation constant, Kd. If the protein concentration is below the Kd, allowing the presence of a significant fraction of free substrate during the titration, the Kd can be determined from a fit of the equation:
F/F0=1−ΔF×[PL]=1−ΔF×0.5(Kd+[P0]+[L0]−(Kd+[P0]+[L0])^2−4[P0][L0]) MathType@MTEF@5@5@+=feaafiart1ev1aaatCvAUfKttLearuWrP9MDH5MBPbIqV92AaeXatLxBI9gBaebbnrfifHhDYfgasaacH8akY=wiFfYdH8Gipec8Eeeu0xXdbba9frFj0=OqFfea0dXdd9vqai=hGuQ8kuc9pgc9s8qqaq=dirpe0xb9q8qiLsFr0=vr0=vr0dc8meaabaqaciaacaGaaeqabaqabeGadaaakeaacqWGgbGrcqGGVaWlcqWGgbGrdaWgaaWcbaGaeGimaadabeaakiabg2da9iabigdaXiabgkHiTiabfs5aejabdAeagjabgEna0kabcUfaBjabdcfaqjabdYeamjabc2faDjabg2da9iabigdaXiabgkHiTiabfs5aejabdAeagjabgEna0kabicdaWiabc6caUiabiwda1maabmaabaGaem4saS0aaSbaaSqaaiabdsgaKbqabaGccqGHRaWkcqGGBbWwcqWGqbaudaWgaaWcbaGaeGimaadabeaakiabc2faDjabgUcaRiabcUfaBjabdYeamnaaBaaaleaacqaIWaamaeqaaOGaeiyxa0LaeyOeI0YaaOaaaeaacqGGOaakcqWGlbWsdaWgaaWcbaGaemizaqgabeaakiabgUcaRiabcUfaBjabdcfaqnaaBaaaleaacqaIWaamaeqaaOGaeiyxa0Laey4kaSIaei4waSLaemitaW0aaSbaaSqaaiabicdaWaqabaGccqGGDbqxcqGGPaqkdaahaaWcbeqaaiabikdaYaaakiabgkHiTiabisda0iabcUfaBjabdcfaqnaaBaaaleaacqaIWaamaeqaaOGaeiyxa0Laei4waSLaemitaW0aaSbaaSqaaiabicdaWaqabaGccqGGDbqxaSqabaaakiaawIcacaGLPaaaaaa@7441@
Here, F is the fluorescence amplitude and F0 its value in the absence of ligand. Δ F is the normalized amplitude of the saturated quenching, [PL] is the concentration of liganded protein, [P0] and [L0] are the concentrations of the total protein and ligand, respectively. The protein concentration was determined from its 280 nm absorbance and pertains here to the monomeric unit (see below).
Fluorescence spectroscopy was performed using a Varian Cary Eclipse spectrofluorimeter with an excitation wavelength of 290 nm. The emission spectra were recorded between 300 and 500 nm. Ligand binding was determined from the partial quenching of this fluorescence emission. To gain a more accurate determination of the dissociation constant, the protein concentration was lowered down to 50 nM (in 50 mM Tris/HCl, pH 7) and the amplitude of the fluorescence emission was computed from an integration of the emission over the 315 nm to 360 nm range.

T1 sequence (Q3J1R2 27-365): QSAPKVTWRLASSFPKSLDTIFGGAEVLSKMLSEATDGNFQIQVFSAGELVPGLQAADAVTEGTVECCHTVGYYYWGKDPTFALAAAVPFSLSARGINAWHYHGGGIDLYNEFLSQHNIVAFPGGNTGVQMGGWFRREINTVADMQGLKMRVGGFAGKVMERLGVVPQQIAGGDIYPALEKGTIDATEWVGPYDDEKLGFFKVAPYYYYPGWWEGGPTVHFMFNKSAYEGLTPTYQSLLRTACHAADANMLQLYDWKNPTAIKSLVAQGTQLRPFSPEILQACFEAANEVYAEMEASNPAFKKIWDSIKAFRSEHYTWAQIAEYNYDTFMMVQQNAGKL

| Structure (SMILES) | Kd | other results |
| --- | --- | --- |
| CC(C)CC(=O)C(=O)O [4-Methyl-2-Oxovalerate] | 720 ± 55 nM |  |
| CCC(=O)C(=O)O [Oxobutyrate, oxobutyrate] | 43 ± 4 nM |  |
| CCCC(=O)C(=O)O [Oxovalerate, oxovalerate] | 18 ± 3 nM |  |
| CC(=O)C(=O)O [Pyruvate, pyruvate] | 270 ± 20 nM |  |
| OC[C@@H](O)[C@@H](O)[C@H](O)[C@H](O)CO [mannitol] |  | Binding to purified proteins from the SmoM family (qualitative): neither bind |
| OC[C@@H](O)[C@@H](O)[C@H](O)[C@@H](O)CO [sorbitol] |  | Binding to purified proteins from the SmoM family (qualitative): neither bind |
| O=C(O)CCC(=O)C(=O)O [α-ketoglutarate] |  | Binding to TakP (qualitative) (fluorescence quenching titration): No binding |
